From PubChem BioAssay AID256 (DTP/NCI, 2004)
Several values for one entry are separate records, joined by “and”; a condition that tells them apart may be missing. Equal entries are not always repeated. Inconclusive results and toxic doses are left out.

Test system: CD2F1 mice, L1210 leukemia ip, survival T/C
Experiment: NCI In Vivo Anticancer Drug Screen. Data for tumor model L1210 Leukemia (intraperitoneal) in CD2F1 (CDF1) mice
Conditions: higher = longer survival
Outline: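 Compound-dosed mice with transplantable tumor versus matched vehicle controls; endpoint ratio T/C reported.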

[1] = endpoint: mean survival time, dose: 50.0 mg/kg/injection, schedule: Q01DX005 (ip), vehicle: water
[2] = endpoint: mean survival time, dose: 100.0 mg/kg/injection, schedule: Q01DX005 (ip), vehicle: water
[3] = endpoint: mean survival time, dose: 200.0 mg/kg/injection, schedule: Q01DX005 (ip), vehicle: water
[4] = endpoint: mean survival time, dose: 400.0 mg/kg/injection, schedule: Q01DX005 (ip), vehicle: water
[5] = endpoint: mean survival time, dose: 12.5 mg/kg/injection, schedule: Q01DX005 (ip), vehicle: water
[6] = endpoint: mean survival time, dose: 25.0 mg/kg/injection, schedule: Q01DX005 (ip), vehicle: water
[7] = endpoint: mean survival time, dose: 100.0 mg/kg/injection, schedule: Q04DX003 (ip), vehicle: saline with Tween-80
[8] = endpoint: mean survival time, dose: 200.0 mg/kg/injection, schedule: Q04DX003 (ip), vehicle: saline with Tween-80
[9] = endpoint: mean survival time, dose: 400.0 mg/kg/injection, schedule: Q04DX003 (ip), vehicle: saline with Tween-80
[10] = endpoint: mean survival time, dose: 50.0 mg/kg/injection, schedule: Q01DX009 (ip), vehicle: saline with Tween-80

O=c1cnn(C2OC(CO)C(O)C2O)c(=O)[nH]1 (stereo not drawn)
T/C (endpoint: mean survival time, dose: 12.5 mg/kg/injection, schedule: Q03HX024 (ip), vehicle: saline): 119 % of control
T/C [1]: 115 % of control and 120 % of control
T/C (endpoint: mean survival time, dose: 50.0 mg/kg/injection, schedule: Q03HX024 (ip), vehicle: saline): 91 % of control
T/C (endpoint: mean survival time, dose: 100.0 mg/kg/injection, schedule: Q01DX001 (ip), vehicle: saline): 105 % of control
T/C [2]: 117 % of control and 121 % of control and 106 % of control
T/C (endpoint: mean survival time, dose: 100.0 mg/kg/injection, schedule: Q01DX009 (ip), vehicle: distilled water + Tween-80): 119 % of control
T/C (endpoint: mean survival time, dose: 100.0 mg/kg/injection, schedule: Q01DX009 (ip), vehicle: saline): 122 % of control
T/C (endpoint: mean survival time, dose: 143.0 mg/kg/injection, schedule: Q03HX016 (ip), vehicle: other): 122 % of control
T/C (endpoint: mean survival time, dose: 200.0 mg/kg/injection, schedule: Q01DX001 (ip), vehicle: saline): 101 % of control
T/C [3]: 121 % of control and 123 % of control and 108 % of control
T/C (endpoint: mean survival time, dose: 200.0 mg/kg/injection, schedule: Q01DX009 (ip), vehicle: saline): 86 % of control
T/C (endpoint: mean survival time, dose: 300.0 mg/kg/injection, schedule: Q03HX024 (ip), vehicle: other): 151 % of control
T/C (endpoint: mean survival time, dose: 400.0 mg/kg/injection, schedule: Q01DX001 (ip), vehicle: saline): 108 % of control
T/C [4]: 116 % of control
T/C (endpoint: mean survival time, dose: 400.0 mg/kg/injection, schedule: Q01DX009 (ip), vehicle: saline): 94 % of control
T/C (endpoint: mean survival time, dose: 500.0 mg/kg/injection, schedule: Q03HX016 (ip), vehicle: other): 152 % of control
T/C (endpoint: mean survival time, dose: 500.0 mg/kg/injection, schedule: Q03HX024 (ip), vehicle: other): 181 % of control
T/C (endpoint: mean survival time, dose: 800.0 mg/kg/injection, schedule: Q01DX001 (ip), vehicle: saline): 110 % of control
T/C (endpoint: mean survival time, dose: 800.0 mg/kg/injection, schedule: Q01DX005 (ip), vehicle: water): 110 % of control
T/C (endpoint: mean survival time, dose: 800.0 mg/kg/injection, schedule: Q01DX009 (ip), vehicle: distilled water + Tween-80): 154 % of control
T/C (endpoint: mean survival time, dose: 1000.0 mg/kg/injection, schedule: Q03HX016 (ip), vehicle: other): 152 % of control
T/C (endpoint: mean survival time, dose: 1000.0 mg/kg/injection, schedule: Q03HX024 (ip), vehicle: other): 167 % of control
T/C (endpoint: mean survival time, dose: 1600.0 mg/kg/injection, schedule: Q01DX009 (ip), vehicle: distilled water + Tween-80): 160 % of control
T/C (endpoint: mean survival time, dose: 1600.0 mg/kg/injection, schedule: Q01DX009 (ip), vehicle: saline): 121 % of control

Nc1cc(=O)c2nnn(C3OC(CO)C(O)C3O)c2[nH]1 (stereo not drawn)
T/C [5]: 102 % of control
T/C [6]: 98 % of control
T/C [1]: 94 % of control
T/C [2]: 87 % of control
T/C [3]: 105 % of control
T/C [4]: 90 % of control

O=C(OCC1OC(n2cnc3c(=O)[nH][nH]c(=O)c32)C(OC(=O)c2ccccc2)C1OC(=O)c1ccccc1)c1ccccc1 (stereo not drawn)
T/C (endpoint: median survival time, dose: 8.25 mg/kg/injection, schedule: Q01DX005 (ip), vehicle: Klucel (hydroxypropylcellulose) (HPC)): 104 % of control
T/C (endpoint: median survival time, dose: 16.5 mg/kg/injection, schedule: Q01DX005 (ip), vehicle: Klucel (hydroxypropylcellulose) (HPC)): 98 % of control
T/C (endpoint: median survival time, dose: 33.0 mg/kg/injection, schedule: Q01DX005 (ip), vehicle: Klucel (hydroxypropylcellulose) (HPC)): 97 % of control
T/C (endpoint: median survival time, dose: 66.0 mg/kg/injection, schedule: Q01DX005 (ip), vehicle: Klucel (hydroxypropylcellulose) (HPC)): 101 % of control
T/C (endpoint: median survival time, dose: 132.0 mg/kg/injection, schedule: Q01DX005 (ip), vehicle: Klucel (hydroxypropylcellulose) (HPC)): 102 % of control

COc1cccc(C(=O)c2ccncc2)c1OC
T/C (endpoint: mean survival time, dose: 25.0 mg/kg/injection, schedule: Q01DX009 (ip), vehicle: water): 91 % of control
T/C (endpoint: mean survival time, dose: 100.0 mg/kg/injection, schedule: Q01DX009 (ip), vehicle: water): 95 % of control
T/C (endpoint: mean survival time, dose: 200.0 mg/kg/injection, schedule: Q01DX009 (ip), vehicle: water): 90 % of control

NC(=O)CC(NC(=O)OCc1ccccc1)C(=O)O (stereo not drawn)
T/C [7]: 95 % of control
T/C [8]: 101 % of control
T/C [9]: 93 % of control

COc1cc(O)cc(OC)c1
T/C (endpoint: mean survival time, dose: 25.0 mg/kg/injection, schedule: Q04DX003 (ip), vehicle: saline): 103 % of control
T/C (endpoint: mean survival time, dose: 50.0 mg/kg/injection, schedule: Q04DX003 (ip), vehicle: saline): 102 % of control
T/C (endpoint: mean survival time, dose: 100.0 mg/kg/injection, schedule: Q04DX003 (ip), vehicle: saline): 100 % of control

O=C(Nc1ccc2cc(S(=O)(=O)O)ccc2c1)c1ccc(N=Nc2c(S(=O)(=O)O)cc3cc(S(=O)(=O)O)cc(NC(=O)c4ccccc4)c3c2O)cc1
T/C [10]: 96 % of control
T/C (endpoint: mean survival time, dose: 100.0 mg/kg/injection, schedule: Q01DX009 (ip), vehicle: saline with Tween-80): 101 % of control

O=C(N/N=C/c1ccc(Cl)cc1Cl)c1ccccc1
T/C (endpoint: mean survival time, dose: 50.0 mg/kg/injection, schedule: Q01DX009 (ip), vehicle: Klucel (hydroxypropylcellulose) (HPC)): 110 % of control
T/C (endpoint: mean survival time, dose: 100.0 mg/kg/injection, schedule: Q01DX009 (ip), vehicle: Klucel (hydroxypropylcellulose) (HPC)): 103 % of control
T/C (endpoint: mean survival time, dose: 200.0 mg/kg/injection, schedule: Q01DX009 (ip), vehicle: Klucel (hydroxypropylcellulose) (HPC)): 86 % of control

NC(=O)c1cc(NCCN2CCCCC2)c([N+](=O)[O-])cc1[N+](=O)[O-]
T/C (endpoint: mean survival time, dose: 100.0 mg/kg/injection, schedule: Q04DX002 (ip), vehicle: saline with Tween-80): 95 % of control
T/C (endpoint: mean survival time, dose: 200.0 mg/kg/injection, schedule: Q04DX002 (ip), vehicle: saline with Tween-80): 95 % of control
T/C (endpoint: mean survival time, dose: 400.0 mg/kg/injection, schedule: Q04DX002 (ip), vehicle: saline with Tween-80): 95 % of control

Cc1ccc2c(ccc(/C=C/c3ccc(O)c4ncccc34)[n+]2C)c1
T/C (endpoint: mean survival time, dose: 12.5 mg/kg/injection, schedule: Q01DX009 (ip), vehicle: saline with Tween-80): 117 % of control
T/C (endpoint: mean survival time, dose: 25.0 mg/kg/injection, schedule: Q01DX009 (ip), vehicle: saline with Tween-80): 122 % of control
T/C [10]: 105 % of control
T/C (endpoint: mean survival time, dose: 66.0 mg/kg/injection, schedule: Q04DX003 (ip), vehicle: saline with Tween-80): 119 % of control
T/C [7]: 119 % of control
T/C (endpoint: mean survival time, dose: 150.0 mg/kg/injection, schedule: Q04DX003 (ip), vehicle: saline with Tween-80): 119 % of control

Cc1cc(Cl)ccc1NS(=O)(=O)c1cccc([N+](=O)[O-])c1
T/C [7]: 97 % of control
T/C [8]: 93 % of control
T/C [9]: 90 % of control

CC(C)=C(CO)CCC(C)C
T/C [7]: 100 % of control
T/C [8]: 103 % of control

COC1C(O)CC(OC2CC(OC3CC(O[C@@H]4C(=O)c5c(cc6cc(OC7CC(OC8CC(O)C(O)C(C)O8)C(O)C(C)O7)c(C)c(O)c6c5O)C[C@H]4[C@H](OC)C(=O)[C@@H](O)[C@@H](C)O)OC(C)C3O)OC(C)C2O)OC1C (stereo partly drawn)
T/C (endpoint: mean survival time, dose: 0.09 mg/kg/injection, schedule: Q01DX009 (ip), vehicle: saline): 97 % of control
T/C (endpoint: mean survival time, dose: 0.18 mg/kg/injection, schedule: Q01DX009 (ip), vehicle: saline): 103 % of control
T/C (endpoint: mean survival time, dose: 0.37 mg/kg/injection, schedule: Q01DX009 (ip), vehicle: saline): 111 % of control
T/C (endpoint: mean survival time, dose: 0.75 mg/kg/injection, schedule: Q01DX009 (ip), vehicle: saline): 104 % of control
T/C (endpoint: mean survival time, dose: 1.5 mg/kg/injection, schedule: Q01DX009 (ip), vehicle: saline): 95 % of control
T/C (endpoint: mean survival time, dose: 375.0 micrograms/kg/injection, schedule: Q01DX009 (ip), vehicle: saline): 110 % of control
T/C (endpoint: mean survival time, dose: 750.0 micrograms/kg/injection, schedule: Q01DX009 (ip), vehicle: saline): 115 % of control
T/C (endpoint: mean survival time, dose: 1500.0 micrograms/kg/injection, schedule: Q01DX009 (ip), vehicle: saline): 109 % of control
T/C (endpoint: mean survival time, dose: 3000.0 micrograms/kg/injection, schedule: Q01DX009 (ip), vehicle: saline): 104 % of control

CC(=O)NC1CC(n2cnc3c(=O)[nH]cnc32)OC1C(C)O (stereo not drawn)
T/C [5]: 101 % of control
T/C [6]: 98 % of control
T/C [1]: 101 % of control
T/C [2]: 98 % of control
T/C [3]: 92 % of control

O=C1c2ccccc2C(=O)c2c(NCCN3CCNCC3)ccc(NCCN3CCNCC3)c21
T/C (endpoint: mean survival time, dose: 4.0 mg/kg/injection, schedule: Q01DX009 (ip), vehicle: acid diluted with saline): 100 % of control
T/C (endpoint: mean survival time, dose: 8.0 mg/kg/injection, schedule: Q01DX009 (ip), vehicle: acid diluted with saline): 102 % of control
T/C (endpoint: mean survival time, dose: 16.0 mg/kg/injection, schedule: Q01DX009 (ip), vehicle: acid diluted with saline): 106 % of control
T/C (endpoint: mean survival time, dose: 32.0 mg/kg/injection, schedule: Q01DX009 (ip), vehicle: acid diluted with saline): 104 % of control

CC(=O)c1cccc(OCc2ccccc2)c1
T/C (endpoint: mean survival time, dose: 100.0 mg/kg/injection, schedule: Q04DX003 (ip), vehicle: other): 96 % of control
T/C (endpoint: mean survival time, dose: 200.0 mg/kg/injection, schedule: Q04DX003 (ip), vehicle: other): 96 % of control
